Laboratory results: patent US9957262B2, “Opioid analgesic” (NATIONAL UNIVERSITY CORPORATION CHIBA UNIVERSITY, priority 2013, dated 2018)
“Also recorded” adds a separate entry of the source. Like-named read-outs stand apart in the source and are kept apart here.

Assays:
[1] = tested on: mice; details: subcutaneous or oral administration, tail-flick test or hot-plate test; cited from earlier work
[2] = tested on: opioid receptors; details: guinea pig small intestine, via opioid receptors; cited from earlier work
[3] = target: hMOR (human μ-opioid receptors) (Homo sapiens, UniProt P35372); test: hMOR agonist activity (% DAMGO); assay type: biochemical
Chain of hMOR (human μ-opioid receptors) (P35372 whole entry): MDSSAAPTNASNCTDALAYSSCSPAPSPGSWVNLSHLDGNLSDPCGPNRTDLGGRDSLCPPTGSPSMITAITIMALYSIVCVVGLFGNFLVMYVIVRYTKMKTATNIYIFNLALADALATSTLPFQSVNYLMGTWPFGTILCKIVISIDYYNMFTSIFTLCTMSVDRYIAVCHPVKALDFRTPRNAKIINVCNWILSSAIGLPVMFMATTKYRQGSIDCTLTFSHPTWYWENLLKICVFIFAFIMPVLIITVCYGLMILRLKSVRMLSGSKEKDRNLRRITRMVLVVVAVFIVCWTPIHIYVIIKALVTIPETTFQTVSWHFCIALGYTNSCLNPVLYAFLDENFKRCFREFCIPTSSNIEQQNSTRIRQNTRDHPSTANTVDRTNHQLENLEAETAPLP

[4] = target: T1, human μ-opioid receptors (Homo sapiens, UniProt P35372); test: Human μ-opioid receptor binding test with [3H]-DAMGO; details: for Ki: [3H]-DAMGO 1 nM, CHO-K1 membrane fraction expressing human μ-opioid receptor, read-out: hMOR binding Ki
T1 construct: purchased PerkinElmer; host or cells: CHO-K1 cells (membrane fraction)
T1 sequence (P35372 whole entry): as above
Protocol: The binding of each of MGM-30 and MGM-29 to human μ-opioid receptors was evaluated through use of a μ-opioid receptor ligand DAMGO ([D-Ala(2), N-Me-Phe(4), Gly-ol(5)] enkephalin acetate salt). MGM-9 was used as a sample for comparison and evaluated by the same method.
A cell membrane fraction of CHO-K1 cells expressing human μ-opioid receptor gene (manufactured by PerkinElmer) was used as a reagent. The human μ-opioid receptor-expressing cell membrane fraction was diluted to 1 mg/mL or 100 μg/mL with 50 mM Tris-HCl (pH 7.4), and then 1 mL of the dilution was dispensed in each of screw-capped vials, cryopreserved at −80° C., and dissolved before use. DAMGO was prepared at 1 mM with dimethylsulfoxide (hereinafter abbreviated as DMSO), and then dispensed in each of screw-capped vials, cryopreserved at −20° C., and dissolved before use.
A human μ-opioid receptor binding test was performed through use of the human μ-opioid receptor-expressing cell membrane fraction and [^3H]-labeled DAMGO (DAMGO, [TYROSYL-3,5-3H], manufactured by PerkinElmer: hereinafter referred to as [^3H]-DAMGO). Specifically, 10 μL of [^3H]-DAMGO (final concentration: 1 nM) diluted to 50 nM with 50% ethanol was added to 10 μL of a test compound solution obtained by diluting each of MGM-30, MGM-29, and MGM-9 with DMSO so as to have a final concentration of from 0.1 nM to 10,000 nM. 480 μL of the μ-opioid receptor-expressing cell membrane fraction diluted to 40 μg/mL with binding assay buffer (10 mM MgCl2, 50 mM Tris-HCl, 0.2% BSA, pH 7.4) was further added, followed by mixing, and the mixture was then subjected to a reaction at 27° C. for 2 hours. The same tests were performed for measurement of total binding activity by using 10 μL of DMSO in place of the test compound, and for measurement of μ-opioid receptor non-specific binding activity by using 10 μL of 1 mM DAMGO (final concentration: 20 μM) in place of the test compound. The binding reaction was terminated by suction filtration with a GF/C filter (manufactured by Whatman) preimmersed in 0.5% polyethylene imine. The filter was washed four times with 2.5 mL of a washing buffer (10 mM Tris-HCl, pH 7.4), and radioactivity remaining in the filter was measured. Then, a dissociation constant (Kd value) of [^3H]-DAMGO for the μ-opioid receptor-expressing cell membrane fraction was calculated by Scatchard plot analysis.
IC50 value was calculated, which is a test compound concentration at which the specific binding of [^3H]-DAMGO to human μ-opioid receptors was inhibited by 50%, by using analysis software XLfit™ ([…]). Then, an inhibition constant (Ki value) was calculated using the following equation: Ki=IC50/(1+S), S=(Concentration of [^3H]-DAMGO/Kd of [^3H]-DAMGO).

[5] = tested on: ddY strain mice; test: Mouse tail-flick test, subcutaneous administration; assay type: in vivo; details: for analgesic action in words: s.c., 0.3, 1 and 3 mg/kg; for time after administration at which the analgesic action returned to the vehicle level: any of the doses
Protocol: The results of the test are represented by dose-response curves. […] In addition, a similar test was performed by using a vehicle as a negative control. The analgesic action of each compound was quantified by using a percentage of maximum possible effect (% MPE). % MPE was calculated from the following equation: % MPE=[(Post-drug latency−Pre-drug latency)/(Cut-off time−Pre-drug latency)]×100. The abscissa axis of FIG. 1 indicates a time after the administration of each compound (time after injection (min)).
Six-week-old male ddY strain mice (Japan SLC, Inc.) were used.
MGM-30 and MGM-29 were each dissolved in 25 mM phosphate buffer (pH 5.3 to 5.5). MGM-9, which was a known mitragynine derivative compound, was used as a sample for comparison. MGM-9 was obtained by synthesis according to a method similar to a method described in each of the previous reports (Patent Literatures 2 and 3 and Non Patent Literature 3).
A tail-flick test is a method of evaluating the analgesic effect of a compound, which comprises applying a nociceptive stimulus, for example, a heat stimulus, to the tail of a mouse, and then using as an indicator flight response elicited by the stimulus. Since a mouse respond to the heat stimulus by flicking or moving its tail out of the path of the stimulus, the tail is exposed to a photocell located in a tail-flick analgesia meter (Ugo Basile Tail-flick Unit 7360, Ugo Basile) immediately below the tail. A reaction time is automatically recorded.
Before treatment with the compounds, the vehicle, or physiological saline, a nociceptive threshold was measured three times, and the mean of the reaction time was used as a pre-drug latency for each mouse. The intensity of the heat stimulus was adjusted to such an intensity that mice flicked the tail upward within from 2 seconds to 4 seconds, and a time for heat treatment was set to a maximum stimulation time (cut-off time) of 10 seconds in order to prevent tissue damage. Each of the compounds was subcutaneously administered to mice in a volume of 10 mL/kg with doses 0.3 mg/kg, 1 mg/kg, and 3 mg/kg. A latency after the administration (post-drug latency) was measured 15 minutes, 30 minutes, 45 minutes, 60 minutes, 90 minutes, 120 minutes, and 180 minutes after the administration. The vehicle used for diluting the compounds was used as a control in place of the compounds, and was administered in the same volume. The analgesic action of each compound was quantified through use of a ratio to the maximum drug efficacy, i.e., a percentage of maximum possible effect (hereinafter abbreviated as % MPE) % MPE was calculated from the following equation: % MPE=[(Post-drug latency−Pre-drug latency)/(Cut-off time−Pre-drug latency)]×100. Each value is expressed as the mean of data obtained from six mice±standard error.
Data was expressed as the mean±standard error. Statistical analyses were performed by the two-tailed Student's t test for comparison of two groups and by a one-way analysis of variance followed by a Bonferroni multiple-comparison test for comparison of more than two groups. A P value of <0.05 was considered statistically significant.

[6] = Metabolic stability test, human liver microsome; assay type: in vitro ADME; details: for Metabolic stability Ms human (% remaining): human liver microsomal fraction, 37° C., 30 minutes, NADPH; for metabolic stability compared to formula (III), in words: in vitro metabolic stability test using liver microsome
From the text: (§1) Liver microsome was used and subjected to a reaction with MGM-30 or MGM-29 for a predetermined time. A sample subjected to the reaction was compared to a sample not subjected to the reaction to calculate a residual ratio for evaluating a degree of a compound that was metabolized in liver. MGM-9 was used as a sample for comparison and evaluated by the same method.
(§2) Commercially available pooled human liver microsome (manufactured by Xenotech) was used as human liver microsome. Pooled rat liver microsome prepared from rat liver by a method known per se was used as rat liver microsome.
(§3) A metabolic stability test was specifically performed as described below. First, a test compound was subjected to a reaction (oxidative reaction) at 37° C. for 0 minutes or 30 minutes in 0.2 mL of a buffer (50 mmol/L tris-HCl pH 7.4, 150 mmol/L potassium chloride, 10 mmol/L magnesium chloride) containing 0.5 mg protein/mL of liver microsome in the presence of 1 mmol/L nicotinamide adenine dinucleotide phosphate (hereinafter abbreviated as NADPH). After the reaction, 50 μL of the reaction liquid was added to 100 μL of a solution of methanol/acetonitrile=1/1 (volume/volume: hereinafter abbreviated as v/v), followed by mixing and centrifugation at 3,000 rpm for 15 minutes. The test compound in the centrifugation supernatant was quantified by liquid chromatograph/tandem mass spectrometry (LC/MS/MS). Then, the amount of the compound at the start of the reaction was defined as 100%, and the residual ratio of the test compound after the reaction was calculated. A hydrolysis reaction was performed in the absence of NADPH, and a glucuronidation reaction was performed in the presence of 5 mM UDP-glucuronic acid in place of NADPH. Then, the same operation was performed.

[7] = Metabolic stability test, rat liver microsome; assay type: in vitro ADME; details: rat liver microsomal fraction, 37° C., 30 minutes, NADPH
From the text: as §1, §2, §3

[8] = 3 mg/kg s.c., 15 minutes after administration
[9] = 3 mg/kg s.c., 15 minutes to 60 minutes after administration

Row | SMILES | hMOR agonist (% DAMGO) [3] | Ki [4] | analgesic action (% MPE) [5, 8] | analgesic action (% MPE) [5, 9] | time after administration at which the maximum analgesic action was expressed ([5]; s.c.) | analgesic action in words [5] | time after administration at which the analgesic action returned to the vehicle level ([5]; s.c.) | Metabolic stability Ms human (% remaining) [6] | Metabolic stability Ms rat (% remaining) [7] | metabolic stability compared to formula (III), in words [6] | other results
1 | CC[C@@H]1CN2CC[C@@]3(O)C(=Nc4cccc(OC)c43)[C@@H]2C[C@@H]1/C(=C\OC)C(=O)OC [7-hydroxymitragynine] | – | – | – | – | – | – | – | – | – | – | antinociceptive action [1]: remarkable antinociceptive action; effect on contraction induced by electrical stimulation [2]: inhibited contraction induced by electrical stimulation
2 | CC[C@@H]1CN2CC[C@@]34OCCO[C@@]3(Nc3ccc(F)c(OC)c34)[C@@H]2C[C@@H]1/C(=C\OC)C(=O)OC [MGM-9, reference compound] | 49.0 % DAMGO | 3.5 nM | 100% | 100% | 15 min | dose-dependent analgesic action | One hundred and eighty | 57 % remaining | 3 % remaining | – | analgesic action (% MPE) ([5]; 1 mg/kg s.c., 15 minutes after administration): 100%; time after administration until which the analgesic action was sustained ([5]; 3 mg/kg s.c.): 120 min
3 | CC[C@@H]1CN2CC[C@@]34OCCC[C@@]3(Nc3cccc(OC)c34)[C@@H]2C[C@@H]1/C(=C\OC)C(=O)OC [MGM-29] | 45.9 % DAMGO | 4.9 nM | about 20% | – | – | limited analgesic action; also recorded: dose-dependent analgesic action | – | 78 % remaining | 36 % remaining | remarkably high metabolic stability | binding affinity for human μ-opioid receptors relative to MGM-9 (formula (III)), in words [4]: comparable to that of MGM-9; binding affinity for human μ-opioid receptors relative to MGM-9 (formula (III)), in words ([4]; listed as formula (II)): comparable to that of the compound represented by the formula (III); analgesic action in words ([5]; listed as formula (II)): exhibited an analgesic action, although the action was determinative
4 | CC[C@@H]1CN2CC[C@@]34OCC[C@@]3(Nc3cccc(OC)c34)[C@@H]2C[C@@H]1/C(=C\OC)C(=O)OC [MGM-30] | 46.2 % DAMGO | 0.12 nM | – | 100% | 15 min | dose-dependent analgesic action; also recorded: most potent analgesic action and had the longest duration of action | 180 min | 92 % remaining | 43 % remaining | remarkably high metabolic stability | binding affinity for human μ-opioid receptors relative to MGM-9 (formula (III)) [4]: about 30 fold; analgesic action (% MPE) ([5]; 0.3 mg/kg s.c., 15 minutes to 30 minutes after administration): about 95%; time after administration until which the analgesic action was sustained ([5]; 1 mg/kg and 3 mg/kg s.c.): 90 min; analgesic action (% MPE) ([5]; 1 mg/kg s.c., 15 minutes to 60 minutes after administration): 100%; analgesic action relative to the compound of formula (III) (MGM-9) ([5]; s.c.): approximately 3 fold; analgesic action in words ([5]; listed as formula (I)): potent analgesic action in a dose-dependent manner
